This note sets out measurements from US20250325677A1, “STAT6 DEGRADERS” (Gilead Sciences, Inc., priority 2024, published 2025).

Where only a bound is given, the exact number is not on record here.

Sequence of STAT6 (P42226 whole entry): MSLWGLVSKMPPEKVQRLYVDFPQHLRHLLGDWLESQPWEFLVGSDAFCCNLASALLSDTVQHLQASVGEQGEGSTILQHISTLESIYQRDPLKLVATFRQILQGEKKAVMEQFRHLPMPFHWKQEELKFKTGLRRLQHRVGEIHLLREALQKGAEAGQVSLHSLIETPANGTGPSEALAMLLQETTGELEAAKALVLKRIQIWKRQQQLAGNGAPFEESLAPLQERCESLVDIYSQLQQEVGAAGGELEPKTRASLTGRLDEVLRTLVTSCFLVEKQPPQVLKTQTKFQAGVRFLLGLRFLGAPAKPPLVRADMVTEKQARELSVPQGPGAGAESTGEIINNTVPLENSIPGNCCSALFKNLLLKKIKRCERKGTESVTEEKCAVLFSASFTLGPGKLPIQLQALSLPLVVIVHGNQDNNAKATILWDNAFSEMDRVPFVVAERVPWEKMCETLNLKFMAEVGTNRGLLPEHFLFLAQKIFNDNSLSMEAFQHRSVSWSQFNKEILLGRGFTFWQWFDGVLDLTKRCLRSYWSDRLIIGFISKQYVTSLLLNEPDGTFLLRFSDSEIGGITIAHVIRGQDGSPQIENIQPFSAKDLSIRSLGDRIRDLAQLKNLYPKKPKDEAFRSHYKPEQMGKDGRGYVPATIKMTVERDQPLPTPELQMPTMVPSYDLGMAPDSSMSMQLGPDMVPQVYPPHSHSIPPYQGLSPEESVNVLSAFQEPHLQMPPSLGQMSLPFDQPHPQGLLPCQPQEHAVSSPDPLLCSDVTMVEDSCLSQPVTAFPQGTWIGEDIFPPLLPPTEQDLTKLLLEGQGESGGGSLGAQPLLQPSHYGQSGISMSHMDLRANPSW

The first test deals with eotaxin-3 release. Briefly: Human whole blood eotaxin-3 assay (IL-4 stimulated). Type of test: cell-based. Conditions: human whole blood, IL-4 0.4 nM, 48 hours; geometric mean; given for compounds with >80% Emax; read-out: Eotaxin-3 EC50. The protocol:
Human Whole Blood Eotaxin-3 Assay
This was a human whole blood assay using recombinant human Interleukin 4 to stimulate the blood and measuring the ability of the test compounds to inhibit eotaxin-3 release. Compounds or media were added to the wells and incubated together with human whole blood for 120 minutes at 37° C. Subsequently, recombinant IL-4 was added at a final concentration of 0.4 nM. The plates were incubated for 48 hours.
Test compounds which inhibited eotaxin-3 release upon stimulation with human IL-4 (E. coli) interfered with the signaling in human whole blood are expected to have activity in human beings. […] The EC50 value indicates at which concentration test compounds were active and in inhibiting the eotaxin-3 release. As eotaxin-3 release is down-stream of STAT6 signaling both STAT6 inhibitors and STAT6 degraders are active in this assay.
The data from the human whole blood eotaxin-3 assay is shown below for Examples 3e27, 3e50, 3e17, and 3e51 (where the effect in % is plotted against the test concentration in M on a log-scale).
As a reminder, the EC50 is the midpoint of the concentration-response curve. With `CNc1ccc(-c2ccnc3c2cc([C@H](C)N2CC=C(c4c(C)cc(C(=O)N5CCC(CN6CCN(c7cc8c(cc7F)n(C7CCC(=O)NC7=O)c(=O)n8C)CC6)CC5)cc4F)CC2)n3C)cn1` (stereo partly drawn) [Example 3h45, 3-(6-fluoro-5-(4-((1-(3-fluoro-5-methyl-4-(1-((S)-1-(1-methyl-4-(6-(methylamino)pyridin-3-yl)-1H-pyrrolo[2,3-b]pyridin-2-yl)ethyl)-1,2,3,6-tetrahydropyridin-4-yl)benzoyl)piperidin-4-yl)methyl)piperazin-1-yl)-3-methyl-2-oxo-2,3-dihydro-1H-benzo[d]imidazol-1-yl)piperidine-2,6-dione], the EC50 amounted to 6.7 nM. The same measure, in the same setting: the same measure for `C[C@H]1CN(c2ccc3c(c2)C2(CC2)C(=O)N3C2CCC(=O)NC2=O)CCN1CC1CCN(C(=O)c2ccc(C3CCN([C@@H](C)c4cc5c(-c6ccc(N)nc6)ccnc5n4C)CC3)cc2)CC1` (stereo partly drawn) [Example 3h46, 3-(5′-((S)-4-((1-(4-(1-((S)-1-(4-(6-aminopyridin-3-yl)-1-methyl-1H-pyrrolo[2,3-b]pyridin-2-yl)ethyl)piperidin-4-yl)benzoyl)piperidin-4-yl)methyl)-3-methylpiperazin-1-yl)-2′-oxospiro[cyclopropane-1,3′-indolin]-1′-yl)piperidine-2,6-dione]: 230 nM; for `C[C@H]1CN(Cc2ccc3c(c2)C2(CC2)C(=O)N3C2CCC(=O)NC2=O)CCN1CC1CCN(C(=O)c2ccc(C3CCN([C@@H](C)c4cc5c(-c6ccc(N)nc6)ccnc5n4C)CC3)cc2)CC1` (stereo partly drawn) [Example 3h29, 3-(5′-(((S)-4-((1-(4-(1-((S)-1-(4-(6-aminopyridin-3-yl)-1-methyl-1H-pyrrolo[2,3-b]pyridin-2-yl)ethyl)piperidin-4-yl)benzoyl)piperidin-4-yl)methyl)-3-methylpiperazin-1-yl)methyl)-2′-oxospiro[cyclopropane-1,3′-indolin]-1′-yl)piperidine-2,6-dione]: 2.6 nM.

A further test has as its target STAT6 (Homo sapiens (Human), UniProt P42226). In words: STAT6 degrader assay (HiBiT, HeLa LgBiT clone 4.14). It counts as cell-based. Conditions: HeLa LgBiT clone 4.14, 4-24 h; geometric mean; given for compounds with >80% Emax; read-out: STAT6 degradation DC50. The essentials:
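HeLa LgBiT clone 4.14 cells with HiBiT knocked into endogenous STAT6 were treated with compound for 4-24 h at 37° C. Luminescence after Nano-GLO substrate (0.5 h) measured remaining STAT6; 50 μM terfenadine wells defined 100% degradation, and DC50 (nM) was derived.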
In general terms: The HiBiT peptide binds its large partner to form an active luciferase.
The term DC50 denotes the midpoint of the concentration-degradation curve. With `Cc1cc(C(=O)N2CCC(CN3CCN(Cc4ccc5c(c4)n(C)c(=O)n5C4CCC(=O)NC4=O)CC3)CC2)cc(C)c1C1=CCN(Cc2cc3c(-c4ccc(N)nc4)ccnc3n2C)CC1` (centres unmarked) [Example 3e12, 3-(5-((4-((1-(4-(1-((4-(6-aminopyridin-3-yl)-1-methyl-1H-pyrrolo[2,3-b]pyridin-2-yl)methyl)-1,2,3,6-tetrahydropyridin-4-yl)-3,5-dimethylbenzoyl)piperidin-4-yl)methyl)piperazin-1-yl)methyl)-3-methyl-2-oxo-2,3-dihydro-1H-benzo[d]imidazol-1-yl)piperidine-2,6-dione], the DC50 turned out to be 0.9 nM. For the compound `Cn1c(CN2CCC(c3ccc(C(=O)N4CCC(OCC#Cc5ccc6c(c5)n(C)c(=O)n6C5CCC(=O)NC5=O)CC4)cc3)CC2)cc2c(-c3ccc4[nH]ncc4c3)ccnc21` (centres unmarked) [Example 3b1, 3-(5-(3-((1-(4-(1-((4-(1H-indazol-5-yl)-1-methyl-1H-pyrrolo[2,3-b]pyridin-2-yl)methyl)piperidin-4-yl)benzoyl)piperidin-4-yl)oxy)prop-1-yn-1-yl)-3-methyl-2-oxo-2,3-dihydro-1H-benzo[d]imidazol-1-yl)piperidine-2,6-dione], the DC50 amounted to 2.4 nM. Turning to `[2H]C([2H])([2H])n1c(=O)n(C2CCC(=O)NC2=O)c2ccc(CN3CCN(CC4CCN(C(=O)c5ccc(C6CCN([C@@H](C)c7cc8c(-c9ccc(N)nc9)ccnc8n7C)CC6)cc5)CC4)CC3)cc21` (stereo partly drawn) [Example 3e26, 3-(5-((4-((1-(4-(1-((S)-1-(4-(6-aminopyridin-3-yl)-1-methyl-1H-pyrrolo[2,3-b]pyridin-2-yl)ethyl)piperidin-4-yl)benzoyl)piperidin-4-yl)methyl)piperazin-1-yl)methyl)-3-(methyl-d3)-2-oxo-2,3-dihydro-1H-benzo[d]imidazol-1-yl)piperidine-2,6-dione], the DC50 is 1.1 nM. Still for that read-out and setting: the same measure for `Cc1cc(C(=O)N2CCC(CN3CCN(Cc4ccc5c(c4)n(C4CC4)c(=O)n5C4CCC(=O)NC4=O)C[C@@H]3C)CC2)cc(F)c1C1=CCN([C@@H](C)c2cc3c(-c4ccc(N)nc4)ccnc3n2C)CC1` (stereo partly drawn) [Example 3h15, 3-(5-(((S)-4-((1-(4-(1-((S)-1-(4-(6-aminopyridin-3-yl)-1-methyl-1H-pyrrolo[2,3-b]pyridin-2-yl)ethyl)-1,2,3,6-tetrahydropyridin-4-yl)-3-fluoro-5-methylbenzoyl)piperidin-4-yl)methyl)-3-methyl-piperazin-1-yl)methyl)-3-cyclopropyl-2-oxo-2,3-dihydro-1H-benzo[d]imidazol-1-yl)piperidine-2,6-dione]: 1.1 nM. Consider `C[C@@H](c1cc2c(-c3ccc(N)nc3)ccnc2n1C)N1CCC(c2ccc(C(=O)N3CCC(CN4CCN(Cc5ccc6c(c5)n(CC(F)(F)F)c(=O)n6C5CCC(=O)NC5=O)CC4)CC3)cc2)CC1` (stereo partly drawn) [Example 3e25, 3-(5-((4-((1-(4-(1-((S)-1-(4-(6-aminopyridin-3-yl)-1-methyl-1H-pyrrolo[2,3-b]pyridin-2-yl)ethyl)piperidin-4-yl)benzoyl)piperidin-4-yl)methyl)piperazin-1-yl)methyl)-2-oxo-3-(2,2,2-trifluoroethyl)-2,3-dihydro-1H-benzo[d]imidazol-1-yl)piperidine-2,6-dione], for which the half-maximal degradation concentration (DC50) was 4 nM. On the same count and under the same terms, the same measure for `CNc1ccc(-c2ccnc3c2cc([C@H](C)N2CCC(c4ccc(C(=O)N5CCC(CN6CCN(Cc7cc8c(cc7F)n([C@@H]7CCC(=O)NC7=O)c(=O)n8C)C[C@@H]6C)CC5)cc4)CC2)n3C)cn1` [Example 3h22, (R)-3-(6-fluoro-3-methyl-5-(((S)-3-methyl-4-((1-(4-(1-((S)-1-(1-methyl-4-(6-(methylamino)pyridin-3-yl)-1H-pyrrolo[2,3-b]pyridin-2-yl)ethyl)piperidin-4-yl)benzoyl)piperidin-4-yl)methyl)piperazin-1-yl)methyl)-2-oxo-2,3-dihydro-1H-benzo[d]imidazol-1-yl)piperidine-2,6-dione]: 0.9 nM. The same measure, in the same setting: the same measure for `C[C@@H](c1cc2c(-c3ccc4[nH]ncc4c3)ccnc2n1C)N1CCC(c2ccc(C(=O)N3CCC(CN4CCN(Cc5ccc6c(c5)n(C5CC5)c(=O)n6C5CCC(=O)NC5=O)CC4)CC3)cc2)CC1` (stereo partly drawn) [Example 3e11, 3-(5-((4-((1-(4-(1-((S)-1-(4-(1H-indazol-5-yl)-1-methyl-1H-pyrrolo[2,3-b]pyridin-2-yl)ethyl)piperidin-4-yl)benzoyl)piperidin-4-yl)methyl)piperazin-1-yl)methyl)-3-cyclo-propyl-2-oxo-2,3-dihydro-1H-benzo[d]imidazol-1-yl)piperidine-2,6-dione]: 0.9 nM; for `CNc1ccc(-c2ccnc3c2cc([C@H](C)N2CC=C(c4c(C)cc(C(=O)N5CCC(CN6CCN(Cc7ccc8c(c7)n(C7CC7)c(=O)n8[C@@H]7CCC(=O)NC7=O)C[C@@H]6C)CC5)cc4F)CC2)n3C)cn1` [Example 3h7, (R)-3-(3-cyclopropyl-5-(((S)-4-((1-(3-fluoro-5-methyl-4-(1-((S)-1-(1-methyl-4-(6-(methylamino)pyridin-3-yl)-1H-pyrrolo[2,3-b]pyridin-2-yl)ethyl)-1,2,3,6-tetrahydropyridin-4-yl)benzoyl)piperidin-4-yl)methyl)-3-methylpiperazin-1-yl)methyl)-2-oxo-2,3-dihydro-1H-benzo[d]imidazol-1-yl)piperidine-2,6-dione]: 1.4 nM.

The test is the same for the next values; noted with them: HeLa LgBiT clone 4.14, 4-24 h; read-out: STAT6 degradation Emax (%).
By Emax is commonly meant the size of the effect at its maximum, as opposed to the concentration needed. Turning to `Cn1c(CN2CCC(c3ccc(C(=O)N4CCC(CN5CCN(Cc6ccc7c(c6)n(C6CCC(=O)NC6=O)c(=O)n7C)CC5)CC4)cc3)CC2)cc2c(-c3ccc(N)nc3)ccnc21` (centres unmarked) [Example 3o2, 3-(6-((4-((1-(4-(1-((4-(6-aminopyridin-3-yl)-1-methyl-1H-pyrrolo[2,3-b]pyridin-2-yl)methyl)piperidin-4-yl)benzoyl)piperidin-4-yl)methyl)piperazin-1-yl)methyl)-3-methyl-2-oxo-2,3-dihydro-1H-benzo[d]imidazol-1-yl)piperidine-2,6-dione], the Emax was less than 20%. On the same count and under the same terms, the same measure for `Cn1c(CN2CCC(c3ccc(C(=O)N4CCN(CC5CCN(Cc6cccc7c6n(C)c(=O)n7C6CCC(=O)NC6=O)CC5)CC4)cc3)CC2)cc2c(-c3ccc4[nH]ncc4c3)ccnc21` (centres unmarked) [Example 3k1, 3-(4-((4-((4-(4-(1-((4-(1H-indazol-5-yl)-1-methyl-1H-pyrrolo[2,3-b]pyridin-2-yl)methyl)-piperidin-4-yl)benzoyl)piperazin-1-yl)methyl)piperidin-1-yl)methyl)-3-methyl-2-oxo-2,3-dihydro-1H-benzo[d]imidazol-1-yl)piperidine-2,6-dione]: 20 to 30%. As for `Cn1c(CN2CCC(c3ccc(C(=O)N4CCC(N5CCN(Cc6ccc7c(c6)n(C)c(=O)n7C6CCC(=O)NC6=O)CC5)CC4)cc3)CC2)cc2c(-c3ccc4[nH]ncc4c3)ccnc21` (centres unmarked) [Example 3j1, 3-(5-((4-(1-(4-(1-((4-(1H-indazol-5-yl)-1-methyl-1H-pyrrolo[2,3-b]pyridin-2-yl)methyl)piperidin-4-yl)benzoyl)piperidin-4-yl)piperazin-1-yl)methyl)-3-methyl-2-oxo-2,3-dihydro-1H-benzo[d]imidazol-1-yl)piperidine-2,6-dione], the Emax was 20 to 30%.
